pIC50: −log10 of the molar value.

We go through 17 molecules from patent US6953812B2, “Glucagon antagonists/inverse agonists” (Novo Nordisk, Inc., priority 2000, dated 2005).

In one test the target is T1, human GIP receptor (Homo sapiens, UniProt P48546).
T1 construct: expressed in transfected cells; host or cells: BHK (baby hamster kidney) cells, membrane preparation
T1 sequence (P48546 22-466): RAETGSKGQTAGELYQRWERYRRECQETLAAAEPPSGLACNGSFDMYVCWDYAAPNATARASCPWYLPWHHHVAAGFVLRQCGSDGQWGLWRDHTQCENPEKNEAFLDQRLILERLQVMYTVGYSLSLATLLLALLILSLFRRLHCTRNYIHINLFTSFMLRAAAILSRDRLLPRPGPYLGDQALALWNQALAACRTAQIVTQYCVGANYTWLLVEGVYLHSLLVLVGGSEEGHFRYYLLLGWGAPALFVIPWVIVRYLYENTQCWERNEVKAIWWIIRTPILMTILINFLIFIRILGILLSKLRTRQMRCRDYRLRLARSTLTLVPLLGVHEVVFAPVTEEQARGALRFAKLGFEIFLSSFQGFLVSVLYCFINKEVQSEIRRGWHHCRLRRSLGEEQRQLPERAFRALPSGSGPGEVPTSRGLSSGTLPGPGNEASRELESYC
The test can be described thus: GIP Binding Assay. Conditions: membranes of BHK cells transfected with human GIP receptor, 125I-GIP, SPA; read-out: GIP Bd Assay IC50. The protocol: BHK (baby hamster kidney cell line) cells are transfected with the human GIP receptor and a membrane preparation of the cells is prepared.
(§1) All steps in the membrane preparation are kept on ice or performed at 4° C. BHK cells are harvested and centrifuged. The pellet is resuspended in homogenisation buffer (25 mM) HEPES, pH=7.4, 2.5 mM CaCl2, 1.0 mM MgCl2, 250 mg/L bacitracin, 0.1 mM Pefabloc), homogenised 2×10 sec using Polytron 10-35 homogenizer (Kinematica) and added the same amount of homogenisation buffer as used for resuspension. After centrifugation (15 min at 2000×g) the supernatant is transferred to cold centrifuge tubes and centrifuged for 45 min at 40.000×g. The pellet is resuspended in homogenisation buffer, homogenised 2×10 sec (Polytron) and additional homogenisation buffer is added. The suspension is centrifuged for 45 min at 40.000×g and the pellet is resuspended in resuspension buffer (25 mM HEPES, pH=7.4, 2.5 mM CaCl2, 1.0 mM MgCl2) and homogenised 2×10 sec. (Polytron). […] Stabilisation buffer (25 mM HEPES, pH=7.4, 2.5 mM CaCl2, 1.0 mM MgCl2, 1% bovine serum albumin, 500 mg/L bacitracin, 2.5 M sucrose) is added and the membrane preparation is stored at −80° C.
The GIP binding assay is carried out in opti plates (Polystyrene Microplates, Packard). 50 μL assay buffer (25 mM HEPES, pH=7.5, 2.5 mM CaCl2, 1.0 mM MgCl2, 0.003% Tween-20, 0.005% bacitracin, 0.05% sodium azide) and 5 μL GIP or test compound (in DMSO) are added to each well. […] Finally 50 μL WGA beads containing 1 mg beads are transferred to the well. The opti plates are incubated for 3.5 hours on a shaker and then settled for 8-48 hours. The opti plates are counted in a Top-counter. Non-specific binding is determined with 500 nM of GIP.

A further test addresses T2, human glucagon receptor (Homo sapiens, UniProt P47871).
T2 construct: expressed in transfected cells; host or cells: BHK (baby hamster kidney) cells, membrane preparation
Briefly: Glucagon Binding Assay (II). The following applies: membranes of BHK cells transfected with human glucagon receptor, 125I-glucagon, SPA; read-out: Glu Bd Assay (II) IC50. The protocol: Glucagon Binding Assay (II)
BHK (baby hamster kidney cell line) cells are transfected with the human glucagon receptor and a membrane preparation of the cells is prepared.
as §1, with “mM” for “mM)”
The glucagon binding assay is carried out in opti plates (Polystyrene Microplates, Packard). 50 μL assay buffer (25 mM HEPES, pH=7.5, 2.5 mM CaCl2, 1.0 mM MgCl2, 0.003% Tween-20, 0.005% bacitracin, 0.05% sodium azide) and 5 μL glucagon or test compound (in DMSO) are added to each well. […] Finally 50 μL WGA beads containing 1 mg beads are transferred to the well. The opti plates are incubated for 4 hours on a shaker and then settled for 8-48 hours. The opti plates are counted in a Topcounter. Non-specific binding is determined with 500 nM of glucagon.

T2 sequence (P47871 26-477): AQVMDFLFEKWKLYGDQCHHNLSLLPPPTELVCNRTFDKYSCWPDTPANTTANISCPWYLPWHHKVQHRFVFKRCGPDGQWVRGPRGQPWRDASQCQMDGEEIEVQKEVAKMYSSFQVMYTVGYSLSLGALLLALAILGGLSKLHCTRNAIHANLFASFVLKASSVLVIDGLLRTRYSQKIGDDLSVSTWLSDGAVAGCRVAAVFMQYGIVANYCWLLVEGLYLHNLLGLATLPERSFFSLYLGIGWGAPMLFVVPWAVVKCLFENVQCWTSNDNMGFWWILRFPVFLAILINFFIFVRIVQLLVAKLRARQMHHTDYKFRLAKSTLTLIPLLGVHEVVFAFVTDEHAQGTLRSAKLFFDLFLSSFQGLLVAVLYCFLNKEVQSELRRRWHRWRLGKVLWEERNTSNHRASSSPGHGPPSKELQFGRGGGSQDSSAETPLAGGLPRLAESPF

Take `C[C@H](NC(=O)N(Cc1ccc(C(=O)NC[C@@H](O)C(=O)O)cc1)c1ccc(C2CCCCC2)cc1)c1ccc(Cl)cc1` [Example 35, 3-{4-[3-[1(S)-(4-Chlorophenyl)ethyl]-1-(4-cyclohexylphenyl)ureidomethyl]benzoylamino}-2(R)-hydroxypropionic Acid]: the pIC50 on human GIP receptor is 6.36; at human glucagon receptor it was 7.40.

In the case of `O=C(NC[C@@H](O)C(=O)O)c1ccc(CN(C(=O)Nc2cccc(Br)c2)c2ccc(C3=CCCCC3)cc2)cc1` [Example 11, (R)-3-{4-[3-(3-Bromophenyl)-1-(4-cyclohex-1-enylphenyl)ureidomethyl]benzoylamino}-2-hydroxypropionic acid], the pIC50 at human GIP receptor was 6.04; at human glucagon receptor, 7.39.

Regarding `O=C(NCC(F)C(=O)O)c1ccc(CN(C(=O)Nc2cc(Cl)cc(Cl)c2)c2ccc(C3=CCCCC3)cc2)cc1` (racemic) [Example 23, (RS)-3-{4-[1-(4-Cyclohex-1-enylphenyl)3-(3,5-dichlorophenyl)ureidomethyl]benzoylamino}-2-fluoropropionic acid], the pIC50 on human GIP receptor is 6.29; at human glucagon receptor it was 7.40.

As to `CO[C@H](CNC(=O)c1ccc(CN(C(=O)Nc2cc(Cl)cc(Cl)c2)c2ccc(C3=CCCCC3)cc2)cc1)C(=O)O` [Example 31, 3-{4-[1-(4-Cyclohex-1-enylphenyl)-3-(3,5-dichlorophenyl)ureidomethyl]benzoylamino}-2(R)-methoxypropionic Acid], the pIC50 is not above 5.52 at human GIP receptor and 6.04 at human glucagon receptor.

As for `O=C(NC[C@H](O)C(=O)O)c1ccc(CN(C(=O)Nc2cc(Cl)cc(Cl)c2)c2ccc(C3=CCCCC3)cc2)cc1` [Example 18, (S)-3-{4-[1-(4-Cyclohex-1-enylphenyl)-3-(3,5-dichlorophenyl)ureidomethyl]benzoylamino}-2-hydroxypropionic acid], the pIC50 was less than 5.82 at human GIP receptor and 6.75 on human glucagon receptor.

With `CC(C)(C)c1ccc(N(Cc2ccc(C(=O)NCC(O)C(=O)O)cc2)C(=O)Nc2ccc(OC(F)(F)F)cc2)cc1` (racemic) [Example 16, (RS)-3-{4-[1-(4-tert-Butylphenyl)-3-(4-trifluoromethoxyphenyl)ureidomethyl]benzoylamino}-2-hydroxypropionic acid], the pIC50 is 6.69 at human GIP receptor and 7.21 on human glucagon receptor.

As for `O=C(NC[C@@H](O)C(=O)O)c1ccc(CN(CC(c2ccccc2)c2ccccc2)C(=O)c2csc3ccc(Cl)cc23)cc1` [Example 59, (R)-3-(4-{[(5-Chlorobenzo[b]thiophene-3-carbonyl)-(2,2-diphenylethyl)amino]methyl}benzoylamino)-2-hydroxypropionic acid], the pIC50 is less than 5.52 at human GIP receptor and 6.23 at human glucagon receptor.

As to `O=C(NC[C@@H](O)C(=O)O)c1ccc(CN(C(=O)Cc2cccc(OC(F)(F)F)c2)c2ccc(C3CCCCC3)cc2)cc1` [Example 64, (R)-3-[4-({(4-Cyclohexylphenyl)-[(3-trifluoromethoxyphenyl)acetyl]amino}methyl)benzoylamino]-2-hydroxypropionic acid], the pIC50 at human GIP receptor is less than 5.52; at human glucagon receptor it was 6.29.

`O=C(NC[C@@H](O)C(=O)O)c1ccc(CN(C(=O)Nc2ccc(F)c(F)c2)c2ccc(C3CCCCC3)cc2)cc1` [Example 47, (R)-3-{4-[1-(4-Cyclohexylphenyl)-3-(3,4-difluorophenyl)ureidomethyl]benzoylamino}-2-hydroxypropionic acid]: the pIC50 on human GIP receptor is 6.18; on human glucagon receptor, 7.19.

With `O=C(NC[C@@H](O)C(=O)O)c1ccc(CN(C(=O)Nc2ccc(OC(F)(F)F)cc2)c2ccc(C3CCCCC3)cc2)cc1` [Example 4, (R)-3-{4-[1-(4-Cyclohexylphenyl)-3-(4-trifluoromethoxyphenyl)ureidomethyl]benzoylamino}-2-hydroxypropionic acid], the pIC50 on human GIP receptor is 6.91; at human glucagon receptor, 7.64.

On to `O=C(NC[C@@H](O)C(=O)O)c1ccc(CN(C(=O)Nc2ccc(Cl)c(Cl)c2)c2ccc(C3CCCCC3)cc2)cc1` [Example 42, (R)-3-{4-[1-(4-Cyclohexylphenyl)-3-(3,4-dichlorophenyl)ureidomethyl]benzoylamino}-2-hydroxypropionic acid], for which the pIC50 is 6.47 on human GIP receptor and 7.39 on human glucagon receptor.

Turning to `CC(NC(=O)N(Cc1ccc(C(=O)NC[C@@H](O)C(=O)O)cc1)c1ccc(C2CCCCC2)cc1)c1ccc(Br)cc1` (mixture of isomers) [Example 54, 3-{4-[3-[1(RS)-(4-Bromophenyl)ethyl]-1-(4-cyclohexylphenyl)ureidomethyl]benzoylamino}-2(R)-hydroxypropionic acid], the pIC50 on human GIP receptor is less than 5.52; at human glucagon receptor it was 6.41.

In the case of `O=C(NC[C@@H](O)C(=O)O)c1ccc(CN(C(=O)CCc2cccc([N+](=O)[O-])c2)c2ccc(C3CCCCC3)cc2)cc1` [Example 73, (R)-3-[4-({(4-Cyclohexylphenyl)-[3-(3-nitrophenyl)propionyl]amino}methyl)benzoylamino]-2-hydroxypropionic acid], the results for the pIC50 on human GIP receptor and on human glucagon receptor were less than 5.52 and 6.17, respectively.

Turning to `O=C(NC[C@@H](O)C(=O)O)c1ccc(CN(C(=O)Nc2cc(Cl)cc(Cl)c2)c2ccc(C3=CCCCC3)cc2)cc1` [Example 19, (R)-3-{4-[1-(4-Cyclohex-1-enylphenyl)-3-(3,5-dichlorophenyl)ureidomethyl]benzoylamino}-2-hydroxypropionic acid], the figures for the pIC50 at human GIP receptor and on human glucagon receptor were 6.04 and 7.82, respectively.

Turning to `CC(C)(C)C1CCC(N(Cc2ccc(C(=O)NC[C@@H](O)C(=O)O)cc2)C(=O)Nc2ccc3c(c2)C(F)(F)OC(F)(F)O3)CC1` (stereo partly drawn) [Example 45, (R)-3-{4-[1-(4-tert-Butylcyclohexyl)-3-(2,2,4,4-tetrafluoro-4H-benzo[1,3]dioxin-6-yl)ureidomethyl]benzoylamino}-2-hydroxypropionic acid], the pIC50 is 6.43 at human GIP receptor and 7.21 on human glucagon receptor.

For `O=C(NC[C@@H](O)C(=O)O)c1ccc(CN(C(=O)Nc2cc(F)cc(C(F)(F)F)c2)c2ccc(C3CCCCC3)cc2)cc1` [Example 6, (R)-3-{4-[1-(4-Cyclohexylphenyl)-3-(3-fluoro-5-trifluoromethylphenyl)ureidomethyl]benzoylamino}-2-hydroxypropionic acid], the pIC50 at human GIP receptor was 6.53; at human glucagon receptor, 8.00.

Turning to `O=C(NC[C@@H](O)C(=O)O)c1ccc(CN(C(=O)Nc2ccc(F)c(F)c2)c2ccc(C3=CCCCC3)cc2)cc1` [Example 48, (R)-3-{4-[1-(4-Cyclohex-1-enylphenyl)-3-(3,4-difluorophenyl)ureidomethyl]benzoylamino}-2-hydroxypropionic acid], the results for the pIC50 at human GIP receptor and on human glucagon receptor were less than 5.52 and 6.74, respectively.
